Data reported in US9440982B2 (Eolas Therapeutics, Inc., priority 2012, dated 2016).
Like-named read-outs stand apart in the source and are kept apart here.

How the values were obtained:
CYP3A4 = molecular target: T1, CYP3A4 (Homo sapiens, UniProt P08684); assay: Cytochrome P450 inhibition assay (midazolam hydroxylation); assay type: in vitro ADME; conditions: human, human liver microsomes, probe midazolam (hydroxylation to 1′-hydroxymidazolam), 10 μM test compound, midazolam at approximately its Km
T1 construct: pre-incubated with human liver microsomes and NADPH; from tissue; host or cells: human liver microsomes
T1 sequence (P08684 whole entry): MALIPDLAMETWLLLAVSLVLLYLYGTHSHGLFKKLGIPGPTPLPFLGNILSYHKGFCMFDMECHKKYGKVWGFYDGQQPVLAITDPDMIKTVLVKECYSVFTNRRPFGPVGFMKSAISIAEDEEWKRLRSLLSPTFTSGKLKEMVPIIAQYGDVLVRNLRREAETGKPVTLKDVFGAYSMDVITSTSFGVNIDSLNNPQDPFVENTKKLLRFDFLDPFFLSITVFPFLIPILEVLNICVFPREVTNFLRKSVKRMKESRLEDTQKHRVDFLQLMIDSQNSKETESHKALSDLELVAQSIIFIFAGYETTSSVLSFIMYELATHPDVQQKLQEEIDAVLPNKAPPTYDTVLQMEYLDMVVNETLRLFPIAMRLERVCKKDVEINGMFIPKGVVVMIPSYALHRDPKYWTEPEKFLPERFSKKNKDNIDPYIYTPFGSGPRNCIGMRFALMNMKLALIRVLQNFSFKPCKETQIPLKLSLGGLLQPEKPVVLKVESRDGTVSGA
How it was run: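 Human liver microsomes; CYP3A4 activity as midazolam 1′-hydroxylation with substrate near Km, with or without 10 μM test compound, read as percent inhibition. For time-dependent inhibition, parallel samples were preincubated 30 min with NADPH before substrate, and percent inhibition compared with non-preincubated samples.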

OX1 = molecular target: T2, OX1 (Homo sapiens, UniProt O43613); assay: Orexin receptor cell-based functional assay, [Ca2+]i by FLIPR, CHO-OX1 cells
T2 construct: expressed in transfected cells; host or cells: CHO (CHO-OX1, kept under selection antibiotic)
T2 sequence (O43613 1-425): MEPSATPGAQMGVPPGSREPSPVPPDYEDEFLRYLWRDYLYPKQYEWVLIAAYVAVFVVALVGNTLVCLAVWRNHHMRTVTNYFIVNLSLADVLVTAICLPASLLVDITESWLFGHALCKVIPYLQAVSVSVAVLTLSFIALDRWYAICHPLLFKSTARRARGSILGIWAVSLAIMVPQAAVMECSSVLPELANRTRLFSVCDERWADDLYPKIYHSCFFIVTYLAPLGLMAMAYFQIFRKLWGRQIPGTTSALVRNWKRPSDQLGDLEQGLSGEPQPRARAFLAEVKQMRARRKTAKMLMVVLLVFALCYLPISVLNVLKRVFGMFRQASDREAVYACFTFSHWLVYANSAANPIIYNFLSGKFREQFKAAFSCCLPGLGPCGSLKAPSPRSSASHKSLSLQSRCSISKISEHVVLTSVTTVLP
How it was run: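 CHO cells expressing human OX1 or OX2 loaded with calcium dye plus 2.5 mM probenecid at 37° C (calcium4, 30 min, or calcium6, 2 h), then exposed to compounds (0.1 nM-10 μM) for 30 min. Intracellular Ca2+ measured on FLIPR; antagonist format.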

[1] = CHO-OX1 cells, [Ca2+]i by FLIPR, antagonist dose-range 0.1 nM-10 μM, EC90 of OXA, read-out: OX1

inhibition at 10 µM (CYP3A4) [%]	IC50 (OX1; [1]) [µM]	Structure (SMILES)	IC50 (OX1; OX1 (μM)) [µM]
54	0.017	C[C@@H]1CCCN(C(=O)c2cccc(F)c2-c2ncccn2)[C@@H]1CNc1ncc(Cl)cn1 [Example A231, (3-Fluoro-2-(pyrimidin-2-yl)phenyl)((2S,3R)-3-methyl-2-(((5-chloropyrimidin-2-yl)amino)methyl)piperidin-1-yl)methanone]	–
72	0.005	C[C@@H]1CCCN(C(=O)c2cccc(F)c2-c2ncccn2)[C@@H]1CNc1ccc(C(F)(F)F)cn1 [Example A233, (3-Fluoro-2-(pyrimidin-2-yl)phenyl)((2S,3R)-3-methyl-2-(((5-(trifluoromethyl)pyridin-2-yl)amino)methyl)piperidin-1-yl)methanone]	–
50	0.083	C[C@@H]1CCCN(C(=O)c2c(F)cccc2-c2ncccn2)[C@@H]1CNc1ncc(Cl)cn1 [Example A239, ((2S,3R)-2-(((5-Chloropyrimidin-2-yl)amino)methyl)-3-methylpiperidin-1-yl)(2-fluoro-6-(pyrimidin-2-yl)phenyl)methanone]	–
68	0.075	C[C@@H]1CCCN(C(=O)c2cc(F)c(F)cc2-c2ncccn2)[C@@H]1CNc1ncc(C(F)(F)F)cn1 [Example A243, (4,5-Difluoro-2-(pyrimidin-2-yl)phenyl)((2S,3R)-3-methyl-2-(((5-(trifluoromethyl)pyrimidin-2-yl)amino)methyl)piperidin-1-yl)methanone]	–
70	1.3	C[C@@H]1CCCN(C(=O)c2cc(F)c(F)cc2-c2ncccn2)[C@@H]1CNc1ncc(Cl)cn1 [Example A244, ((2S,3R)-2-(((5-Chloropyrimidin-2-yl)amino)methyl)-3-methylpiperidin-1-yl) (4,5-difluoro-2-(pyrimidin-2-yl)phenyl)methanone]	–
65	> 0.1	C[C@@H]1CCCN(C(=O)c2cc(F)c(F)cc2-n2nccn2)[C@@H]1CNc1ncc(Cl)cn1 [Example A247, ((2S,3R)-2-(((5-Chloropyrimidin-2-yl)amino)methyl)-3-methylpiperidin-1-yl)(4,5-difluoro-2-(2H-1,2,3-triazol-2-yl)phenyl)methanone]	–
67	0.02	C[C@@H]1CCCN(C(=O)c2cc(F)c(F)cc2-n2nccn2)[C@@H]1CNc1ncc(C(F)(F)F)cn1 [Example A248, (4,5-Difluoro-2-(2H-1,2,3-triazol-2-yl)phenyl)((2S,3R)-3-methyl-2-(((5-(trifluoromethyl)pyrimidin-2-yl)amino)methyl)piperidin-1-yl)methanone]	–
83	0.018	C[C@@H]1CCCN(C(=O)c2cc(F)c(F)cc2-n2nccn2)[C@@H]1CNc1ccc(C(F)(F)F)cn1 [Example A249, (4,5-Difluoro-2-(2H-1,2,3-triazol-2-yl)phenyl)((2S,3R)-3-methyl-2-(((5-(trifluoromethyl)pyridin-2-yl)amino)methyl)piperidin-1-yl)methanone]	–
63	0.037	C[C@@H]1CCCN(C(=O)c2cccc(F)c2-n2nccn2)[C@@H]1CNc1ccc(Cl)cn1 [Example A254, ((2S,3R)-2-(((5-Chloropyridin-2-yl)amino)methyl)-3-methylpiperidin-1-yl)(3-fluoro-2-(2H-1,2,3-triazol-2-yl)phenyl)methanone]	–
41	0.041	C[C@@H]1CCCN(C(=O)c2cccc(F)c2-n2nccn2)[C@@H]1CNc1ncc(Cl)cn1 [Example A255, ((2S,3R)-2-(((5-Chloropyrimidin-2-yl)amino)methyl)-3-methylpiperidin-1-yl)(3-fluoro-2-(2H-1,2,3-triazol-2-yl)phenyl)methanone]	–
69	0.004	C[C@@H]1CCCN(C(=O)c2cccc(F)c2-n2nccn2)[C@@H]1CNc1ccc(C(F)(F)F)cn1 [Example A257, (3-Fluoro-2-(2H-1,2,3-triazol-2-yl)phenyl)((2S,3R)-3-methyl-2-(((5-(trifluoromethyl)pyridin-2-yl)amino)methyl)piperidin-1-yl)methanone]	–
69	0.004	C[C@@H]1CCCN(C(=O)c2c(F)cccc2-n2nccn2)[C@@H]1CNc1ccc(C(F)(F)F)cn1 [Example A258, (2-Fluoro-6-(2H-1,2,3-triazol-2-yl)phenyl)((2S,3R)-3-methyl-2-(((5-(trifluoromethyl)pyridin-2-yl)amino)methyl)piperidin-1-yl)methanone]	–
37	0.009	C[C@@H]1CCCN(C(=O)c2c(F)cccc2-n2nccn2)[C@@H]1CNc1ncc(C(F)(F)F)cn1 [Example A259, (2-Fluoro-6-(2H-1,2,3-triazol-2-yl)phenyl)((2S,3R)-3-methyl-2-(((5-(trifluoromethyl)pyrimidin-2-yl)amino)methyl)piperidin-1-yl)methanone]	–
53	0.085	C[C@@H]1CCCN(C(=O)c2c(F)cccc2-n2nccn2)[C@@H]1CNc1ncc(Cl)cn1 [Example A260, ((2S,3R)-2-(((5-Chloropyrimidin-2-yl)amino)methyl)-3-methylpiperidin-1-yl)(2-fluoro-6-(2H-1,2,3-triazol-2-yl)phenyl)methanone]	–
77	0.005	C[C@@H]1CCCN(C(=O)c2c(F)cccc2-n2nccn2)[C@@H]1CNc1ccc(Cl)cn1 [Example A261, ((2S,3R)-2-(((5-Chloropyridin-2-yl)amino)methyl)-3-methylpiperidin-1-yl)(2-fluoro-6-(2H-1,2,3-triazol-2-yl)phenyl)methanone]	–
75	0.005	Cc1cccc(C(=O)N2CCC[C@@H](C)[C@H]2CNc2ccc(C(F)(F)F)cn2)c1-c1ncccn1 [Example A298, ((2S,3R)-3-Methyl-2-(((5-(trifluoromethyl)pyridin-2-yl)amino)methyl)piperidin-1-yl)(3-methyl-2-(pyrimidin-2-yl)phenyl)methanone]	–
46	0.25	Cc1cccc(-c2ncccn2)c1C(=O)N1CCC[C@@H](C)[C@H]1CNc1ncc(C(F)(F)F)cn1 [Example A307, ((2S,3R)-3-Methyl-2-(((5-(trifluoromethyl)pyrimidin-2-yl)amino)methyl)piperidin-1-yl)(2-methyl-6-(pyrimidin-2-yl)phenyl)methanone]	–
60	0.005	C[C@@H]1CCCN(C(=O)c2ccccc2-n2nccn2)[C@@H]1CNc1ncc(C(F)(F)F)cn1 [Example A313, (2-(2H-1,2,3-Triazol-2-yl)phenyl)((2S,3R)-3-methyl-2-(((5-(trifluoromethyl)pyrimidin-2-yl)amino)methyl)piperidin-1-yl)methanone]	–
76	0.002	C[C@@H]1CCCN(C(=O)c2ccccc2-n2nccn2)[C@@H]1CNc1ccc(C(F)(F)F)cn1 [Example A314, (2-(2H-1,2,3-Triazol-2-yl)phenyl)((2S,3R)-3-methyl-2-(((5-(trifluoromethyl)pyridin-2-yl)amino)methyl)piperidin-1-yl)methanone]	–
63	0.004	C[C@@H]1CCCN(C(=O)c2ccccc2-c2ncccn2)[C@@H]1CNc1ccc(C(F)(F)F)cn1 [Example A316, ((2S,3R)-3-Methyl-2-(((5-(trifluoromethyl)pyridin-2-yl)amino)methyl)piperidin-1-yl)(2-(pyrimidin-2-yl)phenyl)methanone]	–
46	0.001	C[C@@H]1CCCN(C(=O)c2ccccc2-c2ncccn2)[C@@H]1CNc1ncc(C(F)(F)F)cn1 [Example A317, ((2S,3R)-3-Methyl-2-(((5-(trifluoromethyl)pyrimidin-2-yl)amino)methyl)piperidin-1-yl)(2-(pyrimidin-2-yl)phenyl)methanone]	–
79	0.007	Cc1ccc(-n2nccn2)c(C(=O)N2CCC[C@@H](C)[C@H]2CNc2ccc(C(F)(F)F)cn2)c1F [Example A318, (2-Fluoro-3-methyl-6-(2H-1,2,3-triazol-2-yl)phenyl)((2S,3R)-3-methyl-2-(((5-(trifluoromethyl)pyridin-2-yl)amino)methyl)piperidin-1-yl)methanone]	–
53	0.006	Cc1ccc(-n2nccn2)c(C(=O)N2CCC[C@@H](C)[C@H]2CNc2ncc(C(F)(F)F)cn2)c1F [Example A319, (2-Fluoro-3-methyl-6-(2H-1,2,3-triazol-2-yl)phenyl)((2S,3R)-3-methyl-2-(((5-(trifluoromethyl)pyrimidin-2-yl)amino)methyl)piperidin-1-yl)methanone]	–

Structure (SMILES)	inhibition at 10 µM (CYP3A4) [%]	IC50 (OX1; [1]) [µM]	IC50 (OX1; OX1 (μM)) [µM]
C[C@@H]1CCCN(C(=O)c2cc(F)ccc2-n2nccn2)[C@@H]1CNc1ccc(C(F)(F)F)cn1 [Example A310]	75	–	0.003
